Assay results taken from US20180139985A1 (priority 2015, published 2018).
Where two headings read alike, the source gives them in different places. Bridge positions count the residues as written; N and C are the ends. Square brackets hold non-standard residues; d marks the D form. Peptide text beside a SMILES is read from it. * marks the point of attachment. Ileψ(thiazoline)Cys = CC[C@H](C)[C@H](N)C1=N[C@H](C(=O)*)CS1; dOrn = NCCC[C@@H](N)C(=O)O

Experiments:
[1] = system: Clostridium perfringens CP-013; assay type: in vivo, broiler chicken; conditions: for % Weight gain 1 to 14 d / % Weight gain 1 to 28 d / % Weight gain 14 to 28 d: [(final weight − initial weight)/initial weight] × 100; for Mean body weight (g) 1-d: day 1 (starting weight), n = 30
Clostridium perfringens = assay type: in vivo, broiler chicken; conditions: for Mean CFU per gram of chicken feces on Day 28 (n = 24): final day of study; for Mean CFU per gram of chicken feces on Day 21 (n = 6): five days after final challenge; for Mean CFU per gram of chicken feces on Day 10 (n = 10): pre-challenge

Compound | % Weight gain 1 to 14 d ([1]; 55 ppm in feed) [%] | % Weight gain 1 to 28 d ([1]; 55 ppm in feed) [%] | % Weight gain 14 to 28 d ([1]; 55 ppm in feed) [%] | Mean body weight (g) 1-d ([1]; 55 ppm in feed) [g] | Mean CFU per gram of chicken feces on Day 28 (n = 24) (Clostridium perfringens; 55 ppm in feed) [CFU per gram] | Mean CFU per gram of chicken feces on Day 21 (n = 6) (Clostridium perfringens; 55 ppm in feed) | Mean CFU per gram of chicken feces on Day 10 (n = 10) (Clostridium perfringens; 55 ppm in feed) | % Weight gain 1 to 14 d ([1]; 2 ppm in feed) [%] | % Weight gain 1 to 28 d ([1]; 2 ppm in feed) [%] | % Weight gain 14 to 28 d ([1]; 2 ppm in feed) [%] | Mean body weight (g) 1-d ([1]; 2 ppm in feed) [g] | Mean CFU per gram of chicken feces on Day 28 (n = 24) (Clostridium perfringens; 2 ppm in feed) [CFU per gram] | Mean CFU per gram of chicken feces on Day 21 (n = 6) (Clostridium perfringens; 2 ppm in feed) [CFU per gram] | Mean CFU per gram of chicken feces on Day 10 (n = 10) (Clostridium perfringens; 2 ppm in feed)
CC[C@H](C)[C@H](N)C1=N[C@H](C(=O)N[C@@H](CC(C)C)C(=O)N[C@H](CCC(=O)O)C(=O)N[C@H](C(=O)N[C@H]2CCCCNC(=O)[C@H](CC(N)=O)NC(=O)[C@@H](CC(=O)O)NC(=O)[C@H](Cc3cnc[nH]3)NC(=O)[C@@H](Cc3ccccc3)NC(=O)[C@H]([C@@H](C)CC)NC(=O)[C@@H](CCCN)NC2=O)[C@@H](C)CC)CS1 [Bacitracin] ({Ileψ(thiazoline)Cys}-L[dE]IK[dOrn]I[dF]H[dD]N; lactam 4-C) | 941.1 | 3566.0 | 252.1 | 44.4 | 0.0 | 2.5 × 10^1 ± 9.6 ^ CFU per gram | 8.6 × 10^2 ± 1.6 × 10^2 CFU per gram | – | – | – | – | – | – | –
Virginiamycin | – | – | – | – | – | – | – | 1024.7 | 3532.8 | 223.0 | 44.5 | 0.0 | 0.0 | 1.1 × 10^3 ± 2.2 × 10^2 CFU per gram
